# Data taken from US9181234B2, “Antibacterial compounds” (priority 2010, dated 2015).
# Experiments:
# [1] = test system: Staphylococcus aureus (Isolate ID ATCC 29213); experiment: Antibacterial activity, MIC, S. aureus; format: cell-based; conditions: Staphylococcus aureus, ATCC29213, Gram positive strain; broth microdilution or agar dilution
# Experimental: (§1) Bacterial Assay: Determination of Antibacterial Activity
# (§2) Compounds of the invention were tested for antimicrobial activity by susceptibility testing in liquid or on solid media. MICs for compounds against each strain were determined by the broth microdilution or agar dilution method according to the guidelines of the Clinical Laboratories and Standards Institute, formerly the National Committee for Clinical Laboratory Standards (Clinical Laboratories and Standards Institute. Methods for Dilution Antimicrobial Susceptibility Tests for Bacteria That Grow Aerobically; Approved Standard—Seventh Edition. Document M7-A7. CLSI, Wayne, Pa., 2006; Clinical Laboratories and Standards Institute. The gram positive bacterial strains tested include S. aureus (Staphylococcus aureus (Isolate ID ATCC 29213)), E. faecalis (Enterococcus faecalis (Isolate ID ATCC 29212)) and S. pyogenes (Streptococcus pyogenes (Isolate ID ATCC 51339)). The gram negative bacterial strains tested include H. influenzae (Haemophilus influenzae (Isolate ID ATCC 49247))
# [2] = test system: Enterococcus faecalis (Isolate ID ATCC 29212); experiment: Antibacterial activity, MIC, E. faecalis; format: cell-based; conditions: Enterococcus faecalis, ATCC29212; Gram positive strain; broth microdilution or agar dilution
# Experimental: as §1, §2
# [3] = test system: Streptococcus pyogenes (Isolate ID ATCC 51339); experiment: Antibacterial activity, MIC, S. pyogenes; format: cell-based; conditions: Streptococcus pyogenes, ATCC51339, Gram positive strain; broth microdilution or agar dilution
# Experimental: as §1, §2
# [4] = test system: Haemophilus influenzae (Isolate ID ATCC 49247); experiment: Antibacterial activity, MIC, H. influenzae; format: cell-based; conditions: Haemophilus influenzae, ATCC49247; Gram negative strain; broth microdilution or agar dilution
# Experimental: as §1, §2
# physchem = conditions: kinetic from dmso stock
# Experimental: Turbimetric Assay: Determination of Solubility
# The solubility of the compounds was measured using a turbidimetric method. A series of doubling dilutions of compounds were prepared in neat dimethyl sulfoxide (DMSO). 5 μl samples were diluted twenty-fold into 95 μl volumes of 100 mM citrate buffer (pH 4), phosphate buffered saline (PBS, pH 7.4) or carbonate-bicarbonate buffer (pH 9) in microtitre assay plates and allowed to reach equilibrium at room temperature for 24 hours. The absorbance within each well of the plate was read spectrophotometrically at a wavelength of 620 nm. A precipitate forms when the maximum aqueous solubility level is reached. The value quoted is the highest concentration where the compound was in solution i.e. where no measurable precipitate was present. […] ND=not determined
# [5] = pH 7.4, aqueous buffer, Solubility (pH 7.4)
# [6] = pH 7.4, aqueous buffer, Solubility Range
# [7] = pH 9, aqueous buffer, Max Solubility
# [8] = pH 9, aqueous buffer, Solubility Range (maximum solubility)
SMILES,MIC [1] [µg/mL],MIC [2] [µg/mL],MIC [3] [µg/mL],MIC [4] [µg/mL],solubility at 24 h (physchem; [5]) [µg/mL],solubility at 24 h (physchem; [6]) [µg/mL],solubility at 24 h (physchem; [7]) [µg/mL],solubility at 24 h (physchem; [8]) [µg/mL],"solubility at 24 h (physchem; pH 4, aqueous buffer, Max Solubility) [µg/mL]","solubility at 24 h (physchem; pH 4, aqueous buffer, Solubility Range (maximum solubility)) [µg/mL]","solubility at 24 h (physchem; pH 7.4, aqueous buffer, Max Solubility) [µg/mL]","solubility at 24 h (physchem; pH 7.4, aqueous buffer, Solubility Range (maximum solubility)) [µg/mL]"
"CCNC(=O)Nc1nc2cc(-c3cnc(N4CCC(C)(C(=O)O)CC4)nc3)cc(CC)c2s1 [Compound 37, 1-{5-[7-Ethyl-2-(3-ethyl-ureido)-benzothiazol-5-yl]-pyrimidin-2-yl}-4-methyl-piperidine-4-carboxylic acid]",0.25 to 1,≤ 0.25,1 to 16,> 16,–,–,–,–,–,–,–,–
"CCNC(=O)Nc1nc2cc(-c3cnc(N4CCC(C)(C(=O)O)CC4)nc3)cc(C3CCCCC3)c2s1 [Compound 39, 1-{5-[7-Cyclohexyl-2-(3-ethyl-ureido)-benzothiazol-5-yl]-pyrimidin-2-yl}-4-methyl-piperidine-4-carboxylic acid]",1 to 16,≤ 0.25,> 16,> 16,–,–,–,–,–,–,–,–
CCNC(=O)Nc1nc2cc(-c3cnc(N4CCC(CC)(C(=O)O)CC4)nc3)cc(-c3cc(=O)[nH]cn3)c2s1 [Compound 111],> 16,1 to 16,1 to 16,> 16,–,–,–,–,–,–,–,–
"CCNC(=O)Nc1nc2cc(-c3cnc(N4CCC(C)(C(=O)O)CC4)nc3)cc(-c3noc(C)n3)c2s1 [Compound 213, 1-[5-[2-(Ethylcarbamoylamino)-7-(5-methyl-1,2,4-oxadiazol-3-yl)-1,3-benzothiazol-5-yl]pyrimidin-2-yl]-4-methyl-piperidine-4-carboxylic acid]",0.25 to 1,–,0.25 to 1,0.25 to 1,400,400 to 800,≥ 800,> 800,–,–,–,–
CCNC(=O)Nc1nc2cc(-c3cnc(N4CCC(C)(C(=O)O)CC4)nc3C)cc(-c3ccccn3)c2s1 [Compound 214],0.25 to 1,–,0.25 to 1,1 to 16,400,400 to 800,≥ 800,> 800,–,–,–,–
CCNC(=O)Nc1nc2cc(-c3cnc(N4CCC(C)(C(=O)O)CC4)nc3)cc(Br)c2s1 [Compound 215],≤ 0.25,–,0.25 to 1,1 to 16,400,400 to 800,≥ 800,> 800,–,–,–,–
CCNC(=O)Nc1nc2cc(-c3cnc(NC4COC(C)(C(=O)OCC)OC4)nc3)cc(-c3ccccn3)c2s1 (stereo not shown) [Compound 216],≤ 0.25,–,1 to 16,1 to 16,25,12.5 to 400,–,–,50,12.5 to 400,–,–
CCNC(=O)Nc1nc2cc(-c3cnc(N4CCC(C)(C(=O)O)CC4)nc3)cc(-c3ccc(CN4CCC(F)(F)CC4)cn3)c2s1 [Compound 217],≤ 0.25,–,0.25 to 1,1 to 16,400,400 to 800,≥ 800,> 800,–,–,–,–
CCNC(=O)Nc1nc2cc(-c3cnc(N(C)C4CCC(C)(C(=O)O)CC4)nc3)cc(-c3ccccn3)c2s1 (stereo not shown) [Compound 218],≤ 0.25,–,≤ 0.25,1 to 16,200,12.5 to 400,≥ 800,> 800,–,–,–,–
CCNC(=O)Nc1nc2cc(-c3cnc(N4CCC5(CC4)CC(CC)(C(=O)O)C5)nc3)cc(-c3ccccn3)c2s1 [Compound 219],≤ 0.25,–,0.25 to 1,1 to 16,≥ 800,> 800,–,–,–,–,≥ 800,> 800
